Assay results reported in US4533498A, “Compounds” (Beecham Group p.l.c., priority 1983, dated 1985).

Experiments:
[1] = system: dopamine receptor; test: Dopamine receptor blocking activity in the central nervous system: inhibition of apomorphine induced climbing in the mouse; format: in vivo; conditions: apomorphine 1 mg/kg s.c.; for inhibition of apomorphine induced climbing, result in words: printed beside ED50 10 mg/kg s.c.; for ED50 (inhibition of apomorphine induced climbing): scored at 10, 20 and 30 minutes
Protocol: Compounds were tested for inhibition of apomorphine induced climbing in the mouse. The test is based on that described by Protais, P., Constantin, J. and Schwartz, J. C. (1976), Psychopharmacology, 50, 1-6.
Apomorphine 1 mg/kg s.c. induces mice to climb the wall of a wire cage (inverted food hopper--11×7.5×18 cm high). Mice acclimatised in their home cages in groups of 5 are placed under the hoppers immediately after the injection of apomorphine 1 mg/kg s.c. At 10, 20 and 30 minutes after injection climbing behaviour is scored. The mice are observed for 30 seconds and scored according to the position they spend the majority of time in, score 0--four paws on floor of cage; score 1--fore paws only on walls; score 2--all paws on wall of cage. The scores at all 3 times and for each mouse are summed and mice drug treated compared to mice receiving apomorphine only. A saline only treated group is also included and any score, generally >5% of maximum taken into account.

[2] = system: intragastric pressure; test: Increase in intragastric pressure (conscious restrained rats, gastric fistula); format: in vivo, rat; conditions: 40 minute period after administration, Student's t test vs spontaneous activity
Protocol: Intragastric pressure changes were recorded from previously starved conscious but restrained rats using a saline filled catheter inserted into the lumen of the stomach via a permanent gastric fistula. The catheter was connected to a physiological pressure transducer and pressure changes recorded on a hot wire pen recorder. In each animal a pre-dose period of 40 minutes was allowed to obtain a measure of spontaneous activity. An index of activity was obtained by measuring the average height of pressure waves during 10 minute periods. Values for 4 such periods were obtained during assessment of spontaneous activity and for a 40 minute period after administration of compound. Student's `t` test was applied to the difference in average values obtained for spontaneous and post compound activity.

[3] = system: vomiting response; test: Anti-emetic activity in the dog: inhibition of apomorphine-induced vomiting response; format: in vivo; conditions: s.c. 30 minutes prior to apomorphine HCl 0.1 mg/kg s.c.; for ED50: Canis lupus familiaris, sc
Protocol: Compounds were administered subcutaneously 30 minutes prior to administration of a standard dose of apormorphine HCl (0.1 mg/kg subcutaneously) and the vomiting response compared to that obtained when the same animals were dosed with apomorphine HCl and vehicle only. The ED50 value for inhibition of the vomiting response determined for compounds (17), (29) and (30) was 0.1 mg/kg, and for compound (19) 0.01 mg/kg s.c.

Compound | inhibition of apomorphine induced climbing, result in words [1] | ED50 (inhibition of apomorphine induced climbing) [1] | index of activity (average height of pressure waves) post administration ([2]; 0.5 mg/kg s.c.) | ED50 [3] | index of activity (average height of pressure waves) post administration ([2]; 1.0 mg/kg s.c.) | ED50 value for inhibition of the vomiting response [3]
COc1cc(N)c(Cl)cc1C(=O)NC1CC2CCC1CN2C (racemic) [Compound 18, (±) 4-Amino-5-chloro-2-methoxy-N-(5-[2-methyl-2-azabicyclo[2,2,2]octyl]benzamide] | inactive | 10 mg/kg s.c. | significantly increased the index of activity |  |  | 
COc1cc(N)c(S(C)(=O)=O)cc1C(=O)NC1CC2CCC1CN2Cc1ccccc1 (stereo not shown) [Compound 29, 4-amino-2-methoxy-5-methylsulphonyl-N-[5-(2-benzyl-2-azabicyclo(2.2.2)octyl)]benzamide] |  |  |  | 0.1 mg/kg |  | 
COc1cc(N)c(Cl)cc1C(=O)NC1CC2CCC1CN2Cc1ccccc1 (racemic) [Compound 19, (±)-4-Amino-5-chloro-2-methoxy-N-(5-[2-benzyl-2-azabicyclo[2,2,2]octyl]benzamide] |  | 0.36 mg/kg s.c. |  | 0.01 mg/kg | similarly active | 
COc1cc(N)c(Cl)cc1C(=O)NC1CC2CCC1CN2C (racemic) [Compound 17, (±)-4-Amino-5-chloro-2-methoxy-N-(5-[2-methyl-2-azabicyclo[2,2,2]octyl]benzamide] |  | 7.7 mg/kg s.c. | significantly increased the index of activity | 0.1 mg/kg |  | 
COc1cc(N)c(Cl)cc1C(=O)NC1CC2CCC1CN2Cc1ccccc1 (racemic) [Compound 20, (±) 4-Amino-5-chloro-2-methoxy-N-(5-[2-benzyl-2-azabicyclo[2,2,2]octyl])benzamide] |  | 3.6 mg/kg s.c. | significantly increased the index of activity |  |  | 
COc1cc(N)c(Cl)cc1C(=O)NC1CC2CC1CN2C (racemic) [Compound 26, (±) 4-amino-5-chloro-2-methoxy-N-[5-(2-methyl-2-azabicyclo(2.2.1)heptyl)]benzamide] | inactive | 10 mg/kg s.c. | significantly increased the index of activity |  |  | 
COc1cc(N)c(S(C)(=O)=O)cc1C(=O)NC1CC2CCC1CN2Cc1ccccc1 (stereo not shown) [Compound 30, 4-amino-2-methoxy-5-methylsulphonyl-N-[5-(2-benzyl-2-azabicyclo(2.2.2)octyl)]benzamide] |  |  |  |  |  | 0.1 mg/kg
